# Data published in patent publication US20240109893A1, “PREPARATION AND APPLICATION METHOD OF HETEROCYCLIC COMPOUNDS AS KRAS INHIBITOR” (SHANGHAI KECHOW PHARMA, INC., priority 2020, published 2024).
# Tested on: H358 cells
# Assay: Cell activity experiment: activity test of H358 cells (MTT, 5 days)
# Assay type: cell-based
# Settings: 5 days incubation, absorbance 492 nm
# Method: Example: Cell Activity Experiment
# 1. Cells: H358 purchased from Shanghai EK-Bioscience Biotechnology Co., Ltd.
# 2. Reagents: RPMI 1640 medium, Tryple, MTT (5 mg/mL), DMSO, and DPBS.
# 3. Instruments: an incubator at 37° C. and 5% CO2, a UTRAO microplate reader, a biosafety cabinet, a cell counting plate, and an Optec optical microscope.
# 4. Experimental consumables: 96-well plate Item No.: 3599, and 96-well round-bottomed dispensing plate.
# Experimental Steps of Activity Test of H358 Cells:
# 1. Plating: Cells in the logarithmic growth phase were digested with Tryple and terminated with a fresh medium, and the cells were counted; and the cell concentration was adjusted to 55555 cells/mL with a fresh medium, wherein 90 μL was added to each well, and those on edges were filled with sterile DPBS.
# 2. The plate was incubated in the incubator at 37° C. and 5% CO2 for 24 h, so that the cells cover the bottom of the well by about 50%.
# 3. Drug preparation for experimental group: The drug was dissolved in DMSO to prepare a 20 mmol/L stock solution; the stock solution was further diluted with DMSO to 2 mmol/L, which was serially 3-fold diluted to form an […]-concentration gradient, resulting in a 200× serial compound solution; 10 μL of the serial compound solution was taken and added to 190 μLμL of RPMI1640 medium to obtain a 10× serial compound solution; and 10 μL of the 10× compound solution was taken and added to 90 μL 96-well cell culture plate, with three replicates per grade. The concentration gradient of the compound in the 96-well cell culture plate was […], 1.524158 nM, 4.572474 nM, 13.717420 nM, 41.152260 nM, 123.456800 nM, 370.370400 nM, 1111.111000 nM, 3333.333000 nM, and 10000.000000 nM, with 100 μL per well, and the final concentration of DMSO was 0.5%.
# The control group contained the same volume of solvent as the experimental group and was diluted with a complete medium, with 100 μL per well.
# 4. Incubation was carried out for 5 days in an incubator with 5% CO2 at 37° C.
# 5. After 5 days, 10 μL of an MTT solution (5 mg/mL) was added to each well, and the culture was continued for 4 h.
# 6. The culture was terminated, and the culture solution was carefully sucked out of the well.
# 7. 150 μL of dimethyl sulfoxide (DMSO) was added to each of the null wells in the experimental group and the control group; and after shaking at a medium speed for 10 s, the crystal was fully dissolved, and the optical absorbance value thereof was measured at a wavelength of 492 nm.
SMILES,"IC50 (Homo sapiens, NCI-H358, 120 h) [nM]",IC50 [nM]
C=C(F)C(=O)N1CCN(c2nc(OC[C@@H]3CCCN3C)nc3cc(-c4cccc5c4CCCC5)ccc23)C[C@@H]1CC#N [Example 111],140,
C=C(F)C(=O)N1CCN(c2nc(OCC34CCCN3CCC4)nc3cc(-c4cccc5c4CCCC5)ccc23)C[C@@H]1CC#N [Example 115],45,
C=CC(=O)N1CCN(c2nc(OC[C@@H]3C[C@@H](F)CN3C)nc3c(F)c(-c4cccc5ccc(F)c(Cl)c45)ccc23)C[C@@H]1CC#N [Example 362],4.6,
"C=CC(=O)N1CCN(c2nc(OCC34CCCN3CCC4)nc3c(F)c(-c4cccc5c4CCCC5)ccc23)C[C@@H]1CC#N [Example 363, (S)-2-(1-acryloyl-4-(8-fluoro-2-((tetrahydro-1H-pyrrolizin-7a(5H)-yl)methoxy)-7-(5,6,7,8-tetrahydronaphthalene)-1-yl)quinazolin-4-ylpiperazin-2-yl)acetonitrile]",5,
C=C(F)C(=O)N1CCN(c2nc(OC[C@@H]3CCCN3C)nc3cc(-c4cncc5c4CCCC5)ccc23)C[C@@H]1CC#N [Example 143],80,
C=C(F)C(=O)N1CCN(c2nc(OC[C@@]34CCCN3C[C@H](F)C4)nc3c(F)c(-c4cccc5c4C4CC4C5)ncc23)C[C@@H]1CC#N (stereo partly shown) [Example 68],0.33,
"C=CC(=O)N1CCN(c2nc(OC[C@@H]3CCCN3C)nc3cc(-c4cccc5ccc(F)c(Cl)c45)ccc23)C[C@@H]1CC#N [Example 93, 2-((S)-1-acryloyl-4-(7-(8-chloro-7-fluoronaphthalen-1-yl)-2-(((S)-1-methylpyrrolidin-2-yl)methoxy)quinazolin-4-yl)piperazin-2-yl)acetonitrile]",6.5,
C=CC(=O)N1CCN(c2nc(OC[C@@]34CCCN3C[C@H](F)C4)nc3c(F)c(-c4cccc5c4C4CC4C5)ncc23)C[C@@H]1CC#N (stereo partly shown) [Example 67],0.07,
C=CC(=O)N1CC[C@H]2[C@H]1CN2c1nc(OC[C@@]23CCCN2C[C@H](F)C3)nc2cc(-c3cccc4cccc(Cl)c34)c(Cl)cc12 [Example 474],,30
"C=CC(=O)N1CCN(c2nc(OC[C@@H]3CCCN3C)nc3c(F)c(-c4cccc5cccc(Cl)c45)c(F)cc23)C[C@@H]1CC#N [Example 430, 2-((S)-1-acryloyl-4-(6,8-difluoro-7-(8-chloronaphthalen-1-yl)-2-(((S)-1-methylpyrrolidin-2-yl)methoxy)quinazolin-4-yl)piperazin-2-yl)acetonitrile]",140,
"C=CC(=O)N1CCN(c2nc(OC[C@@H]3C[C@@H](F)CN3C)nc3cc(-c4cncc5cccc(Cl)c45)ccc23)C[C@@H]1CC#N [Example 128, 2-((S)-1-acryloyl-4-(7-(5-chloroisoquinolin-4-yl)-2-((((2S,4R)-4-fluoro-1-methylpyrrolidin-2-yl)methoxy))quinazolin-4-yl)piperazin-2-yl)acetonitrile]",20,
C=C(F)C(=O)N1CC[C@@H]2[C@H]1CN2c1nc(OC[C@@H]2C[C@@H](F)CN2C)nc2c(F)c(-c3ccc(F)c4c3CCCC4)ncc12 [Example 28],80,
"C=CC(=O)N1CCN(c2nc(OCC34CCCN3CCC4)nc3cc(-c4cncc5cccc(Cl)c45)ccc23)C[C@@H]1CC#N [Example 130, (S)-2-(1-acryloyl-4-(7-(5-chloroisoquinolin-4-yl)-2-((tetrahydro-1H-pyrrolizin-7a(5H)-yl)methoxy)quinazolin-4-yl)piperazin-2-yl)acetonitrile]",8,
"C=C(F)C(=O)N1CCN(c2nc(OC[C@@]34CCCN3C[C@H](F)C4)nc3c(OC4CC4)c(-c4cccc5ccc(F)c(Cl)c45)c(Cl)cc23)C[C@@H]1CC#N [Example 915, 2-((2S)-4-(6-chloro-7-(8-chloro-7-fluoronaphthalen-1-yl)-8-cyclopropoxy-2-((2R,7aS)-2-fluorotetrahydro-1H-pyrrolizin-7a(5H)-ylmethoxy)quinazolin-4-yl)-1-(2-fluoroacryloyl)piperazin-2-yl)acetonitrile]",33,
"C=CC(=O)N1CCN(c2nc(OCC34CCCN3CCC4)nc3c(F)c(-c4cccc5cccc(Cl)c45)ccc23)C[C@@H]1CC#N [Example 364, (S)-2-(1-acryloyl-4-(7-(8-chloronaphthalen-1-yl)-8-fluoro-2-((tetrahydro-1H-pyrrolizin-7a(5H)-yl)methoxy)quinazolin-4-yl)piperazin-2-yl)acetonitrile]",2,
C=C(F)C(=O)N1CC[C@@H]2[C@H]1CN2c1nc(OC[C@@]23CCCN2C[C@H](F)C3)nc2c(F)c(-c3ccc(F)c4c3CCCC4)ncc12 [Example 32],35,
C=C(F)C(=O)N1CCN(c2nc(OC[C@@]34CCCN3C[C@H](F)C4)nc3c(F)c(-c4cccc5c4[C@H]4C[C@H]4C5)ncc23)C[C@@H]1CC#N [Example 70],7,
"C=C(F)C(=O)N1CCN(c2nc(OC[C@@]34CCCN3C[C@H](F)C4)nc3c(F)c(-c4cccc5c4CC4CC54)ccc23)C[C@@H]1CC#N (single isomer, unassigned) [Example 888]",,292
C=C(F)C(=O)N1CCN(c2nc(OC[C@@H]3C[C@@H](F)CN3C)nc3c(F)c(-c4cncc5c4CCCC5)ncc23)C[C@@H]1CC#N [Example 36],120,
"C=C(F)C(=O)N1CCN(c2nc(OC[C@@H]3CCCN3C)nc3c(F)c(-c4cccc5c4SCCC5)ncc23)C[C@@H]1CC#N [Example 53, 2-((S)-4-(8-fluoro-2-(((S)-1-methylpyrrolidin-2-yl)methoxy)-7-(thiochroman-8-yl)pyridino[4,3-d]pyrimidin-4-yl)-1-(2-fluoroacryloyl)piperazin-2-yl)acetonitrile]",180,
"C=CC(=O)N1CCN(c2nc(OC[C@@H]3C[C@@H](F)CN3C)nc3cc(-c4cccc5cccc(Cl)c45)ccc23)C[C@@H]1CC#N [Example 79, 2-((S)-1-acryloyl-4-(7-(8-chloronaphthalen-1-yl)-2-((((2S,4R)-4-fluoro-1-methylpyrrolidin-2-yl]methoxy))quinazolin-4-yl)piperazin-2-yl)acetonitrile]",20,
"C=CC(=O)N1CCN(c2nc(OC[C@@H]3CCCN3C)nc3c(F)c(-c4cccc5ccc(F)c(Cl)c45)ccc23)C[C@@H]1CC#N [Example 359, 2-((S)-1-acryloyl-4-(7-(8-chloro-7-fluoronaphthalen-1-yl)-8-fluoro-2-(((S)-1-methylpyrrolidin-2-yl)methoxy)quinazolin-4-yl)piperazin-2-yl)acetonitrile]",3,
C=CC(=O)N1CCN(c2nc(OCC34CCCN3C[C@H](F)C4)nc3cc(-c4cccc5c4CCCC5)ccc23)C[C@@H]1CC#N (stereo partly shown) [Example 116],15,
C=C(F)C(=O)N1CCN(c2nc(OC[C@@]34CCCN3C[C@H](F)C4)nc3nc(-c4cccc5cccc(Cl)c45)ccc23)C[C@@H]1CC#N [Example 261],24,
C=CC(=O)N1CCN(c2nc(OC[C@@H]3C[C@@H](F)CN3C)nc3cc(-c4cccc5ccc(F)c(Cl)c45)c(Cl)cc23)C[C@@H]1CC#N [Example 469],70,
C=CC(=O)N1CCN(c2nc(OC[C@@H]3CCCN3C)nc3c(F)c(-c4cccc5c4CCCC5)c(Cl)cc23)C[C@@H]1CC#N [Example 74],,25
C=CC(=O)N1CCN(c2nc(OCC34CCCN3C[C@H](F)C4)nc3cc(-c4cccc5ccc(F)c(Cl)c45)ccc23)C[C@@H]1CC#N (stereo partly shown) [Example 99],0.34,
C=C(F)C(=O)N1CCN(c2nc(OC[C@@]34CCCN3C[C@H](F)C4)nc3c(F)c(-c4ccc(F)c5c4CCCC5)ncc23)C[C@@H]1CC#N [Example 24],15,
